13 compounds from patent US20260183411A1, “TARGETING SORTILIN” (priority 2024, published 2026) can be followed below.

Data set [1] in a line: Murine serum stability assay. In kind it is in vitro ADME, mouse. The settings on record: read-out: Murine serum stability assay, T1/2. The procedure: Serum was drawn from male CD-1 mice by Pharmidex. Lyophilized peptides were solubilized in DMSO and then further diluted into male mouse (CD-1) serum at 37° C. in duplicates. The reaction was incubated at 37° C. and samples extracted at 6 time points: 0, 0.16, 0.5, 1, 3, and 6 hrs. Acetonitrile (ACN) with an internal standard (tolbutamide) was added to stop the incubation. Samples were centrifuged, and the supernatant was analyzed by HPLC-MS/MS for the parent compound.

For data set [2], the system named is MDA-MB-231 xenograft. In words: MDA-MB-231 murine xenograft efficacy model. It counts as in vivo, mouse. The procedure:
Murine xenograft experiments were conducted at WuXi AppTec and/or Charles River Laboratories and the care and use of animals was conducted in accordance with the regulations of the Association for Assessment and Accreditation of Laboratory Animal Care (AAALAC). MDA-MB-231 tumor cells (ATCC, Manassas, VA, cat #HTB-26) were grown and maintained in L15 medium supplemented with 10% heat inactivated fetal bovine serum, 1% Antibiotic-Antimycotic, and L-glutamine (2 mM) at 37° C. in an atmosphere in 5% CO2, 95% air. BALB/c Nude, female, 6-8 weeks, weighing approximately 18-22 g were purchased from Vital River Laboratory Animal Technology Co., LTD. Mice were inoculated subcutaneously at the right flank with MDA-MB-231 tumor cells (e.g., triple negative breast cancer cells) (10×10^6) in 0.2 mL of PBS with Matrigel (1:1) for tumor development. Animals were randomized and treatment was started when the average tumor volume reached approximately 150-200 mm^3 for the efficacy study. Dosing volume was adjusted based on body weight and was administered at 10 mL/Kg. […] Free MMAE payload was also tested, and similarly dissolved in 25 mM Histidine 10% sucrose pH 7 and one or more of the following doses, 0.6, 0.06 mg/kg, were administered to the mice i.v. at a QW×4 schedule. Tumor sizes were measured twice weekly in two dimensions using a caliper, and the volume in mm^3 calculated using the formula: V=0.5 a×b^2, where a and b are the long and short diameters of the tumor, respectively. TGI was calculated for each group using the formula: TGI (%)=[1−(Ti−T0)/(Vi−V0)]×100; where Ti is the average tumor volume of a treatment group on a given day, TO is the average tumor volume of the treatment group on the first day of treatment, Vi is the average tumor volume of the vehicle control group on the same day with Ti, and V0 is the average tumor volume of the vehicle group on the first day of treatment.
To characterize the effects of the MMAE payload alone, we included free MMAE at molar equivalency to PDCs, and tested at 0.6 and 0.06 mg/kg, as separate arms.
To characterize the effects of the MMAE payload alone, we included free MMAE at molar equivalency to PDCs, and tested at 0.6 mg/kg.

Setting [3] is: male, CD-1, mouse, mouse serum, linear peptides, Table 11.
[4] abbreviates: mouse, serum, linear peptides, Table 11.
[5] abbreviates: male, CD-1, mouse, mouse serum, cyclic peptides, Table 12.
[6] abbreviates: mouse, serum, cyclic peptides, Table 12.

Read-outs that look alike come from different tables or passages of the source. Where a SMILES comes first, the peptide text is derived from it. [ ]: non-standard residue; d: D form. The star is where a group is joined. Dolaproine = CO[C@@H]([C@@H]1CCCN1)[C@@H](C)C(=O)O; Dil = CC[C@H](C)[C@H](NC)[C@@H](CC(=O)O)OC; X1 = C[C@@H](N*)[C@@H](O)c1ccccc1; NMeV = CN[C@H](C(=O)O)C(C)C

As for `CC(C)CC[C@H](NC(=O)[C@H](CCC(N)=O)NC(=O)[C@H](CCCNC(=N)N)NC(=O)[C@H](CC(C)C)NC(=O)[C@H](C)NC(=O)[C@@H]1CCCN1C(=O)[C@H](CC(=O)O)NC(=O)[C@H](CCCNC(=N)N)NC(=O)[C@H](CC(C)C)NC(=O)[C@@H]1CCCN1C(=O)[C@H](C)NC(=O)[C@H](CC(=O)O)NC(=O)[C@H](Cc1c[nH]c2ccccc12)NC(=O)[C@H](CCCNC(=N)N)NC(=O)[C@@H]1CCCN1C(=O)[C@H](C)N)C(=O)N[C@@H](CC(C)(C)C)C(=O)O` [Arb-SAR-P17], the half-life in data set [1] (setting [3]) was 12.1 min.
In the case of `CC(C)C[C@H](NC(=O)[C@H](C)NC(=O)[C@@H]1CCCN1C(=O)[C@H](CC(=O)O)NC(=O)[C@H](CCCNC(=N)N)NC(=O)[C@H](CC(C)C)NC(=O)[C@@H]1CCCN1C(=O)[C@H](C)NC(=O)[C@H](CC(=O)O)NC(=O)[C@H](Cc1c[nH]c2ccccc12)NC(=O)[C@H](CCCNC(=N)N)NC(=O)[C@@H]1CCCN1C(=O)[C@H](C)N)C(=O)N[C@@H](CCCNC(=N)N)C(=O)N[C@@H](CCC(N)=O)C(=O)N[C@@H](CC(C)(C)C)C(=O)N[C@@H](CC(C)(C)C)C(=O)O` [Arb-SAR-P22], the half-life in data set [1] (setting [4]) amounted to 9.95 min.
Regarding `CC(C)C[C@H](NC(=O)[C@H](C)NC(=O)[C@@H]1CCCN1C(=O)[C@H](CC(=O)O)NC(=O)[C@H](CCCNC(=N)N)NC(=O)[C@H](CC(C)C)NC(=O)[C@@H]1CCCN1C(=O)[C@H](C)NC(=O)[C@H](CC(=O)O)NC(=O)[C@H](Cc1c[nH]c2ccccc12)NC(=O)[C@H](CCCNC(=N)N)NC(=O)[C@@H]1CCCN1C(=O)[C@H](C)N)C(=O)N[C@@H](CCCNC(=N)N)C(=O)N[C@@H](CCC(N)=O)C(=O)N[C@@H](CC1CCC1)C(=O)N[C@@H](CC(C)(C)C)C(=O)O` [Arb-SAR-P24], the half-life in data set [1] (setting [3]) was 10.1 min.
On to `CC(C)CC[C@H](NC(=O)[C@H](CCC(N)=O)NC(=O)[C@H](CCCNC(=N)N)NC(=O)[C@H](CC(C)C)NC(=O)[C@H](C)NC(=O)[C@@H]1CCCN1C(=O)[C@H](CC(=O)O)NC(=O)[C@H](CCCNC(=N)N)NC(=O)[C@H](CC(C)C)NC(=O)[C@@H]1CCCN1C(=O)[C@H](C)NC(=O)[C@H](CC(=O)O)NC(=O)[C@H](Cc1c[nH]c2ccccc12)NC(=O)[C@H](CCCNC(=N)N)NC(=O)[C@@H]1CCCN1C(=O)[C@H](C)N)C(=O)N[C@@H](CC1CCC1)C(=O)O` [Arb-SAR-Q09], for which the half-life in data set [1] (setting [4]) is 11.5 min.
As to `CC(C)C[C@H](NC(=O)[C@H](C)NC(=O)[C@@H]1CCCN1C(=O)[C@H](CC(=O)O)NC(=O)[C@H](CCCNC(=N)N)NC(=O)[C@H](CC(C)C)NC(=O)[C@@H]1CCCN1C(=O)[C@H](C)NC(=O)[C@H](CC(=O)O)NC(=O)[C@H](Cc1c[nH]c2ccccc12)NC(=O)[C@H](CCCNC(=N)N)NC(=O)[C@@H]1CCCN1C(=O)[C@H](C)N)C(=O)N[C@@H](CCCNC(=N)N)C(=O)N[C@@H](CCC(N)=O)C(=O)N[C@H](C(=O)N[C@@H](CC1CCC1)C(=O)O)C(C)(C)C` [Arb-SAR-Q15], in data set [1] (setting [3]), the half-life worked out at 16.9 min.
As for `CCCC[C@@H]1NC(=O)[C@@H](NC(=O)[C@H](CCC(N)=O)NC(=O)[C@H](C)NC(C)=O)CSSC[C@@H](C(=O)N[C@@H](CCCNC(=N)N)C(=O)N[C@@H](CCC(N)=O)C(=O)N[C@H](C(=O)N[C@@H](CC(C)(C)C)C(=O)O)C(C)(C)C)NC(=O)[C@H](C)NC(=O)[C@H](CCCNC(=N)N)NC(=O)[C@H](CC(N)=O)NC(=O)[C@H](CCCNC(=N)N)NC(=O)CNC1=O` [Arb_cyclic_C5], the half-life in data set [1] (setting [5]) came out at 46.1 min.
On to `CC(=O)N[C@@H](Cc1c[nH]cn1)C(=O)N[C@@H](CC(N)=O)C(=O)N[C@@H](Cc1ccccc1)C(=O)N[C@@H](Cc1ccc(O)cc1)C(=O)N[C@H]1CSSC[C@@H](C(=O)N[C@@H](CCC(N)=O)C(=O)N[C@@H](CCCNC(=N)N)C(=O)N[C@@H](CCC(N)=O)C(=O)N[C@H](C(=O)N[C@@H](CC(C)(C)C)C(=O)O)C(C)(C)C)NC(=O)[C@H](Cc2c[nH]cn2)NC(=O)[C@H](CCCCN)NC(=O)[C@H](CCCNC(=N)N)NC1=O` [Arb_cyclic_C22], for which the half-life in data set [1] (setting [6]) was 58.3 min.
In the case of `CC(=O)N[C@@H](CCC(=O)O)C(=O)N[C@@H](Cc1c[nH]c2ccccc12)C(=O)N[C@H]1CSSC[C@@H](C(=O)N[C@@H](CCCNC(=N)N)C(=O)N[C@@H](CCC(N)=O)C(=O)N[C@H](C(=O)N[C@@H](CC(C)(C)C)C(=O)O)C(C)(C)C)NC(=O)[C@H]([C@@H](C)O)NC(=O)[C@@H]2CCCN2C(=O)[C@H](Cc2c[nH]cn2)NC(=O)[C@H](CC(N)=O)NC(=O)[C@H](Cc2c[nH]cn2)NC(=O)[C@H](CC(C)C)NC(=O)CNC1=O` [Arb_cyclic_F3], the half-life in data set [1] (setting [5]) amounted to 173 min.
On the same count and under the same terms, then `CC(=O)N[C@@H](CCCNC(=N)N)C(=O)N[C@@H](CC(=O)O)C(=O)N[C@H]1CSSC[C@@H](C(=O)N[C@@H](CCCNC(=N)N)C(=O)N[C@@H](CCC(N)=O)C(=O)N[C@H](C(=O)N[C@@H](CC(C)(C)C)C(=O)O)C(C)(C)C)NC(=O)[C@@H]2CCCN2C(=O)[C@@H]2CCCN2C(=O)[C@H](C)NC(=O)[C@H](CCCNC(=N)N)NC(=O)[C@H](CC(C)C)NC(=O)[C@H](CO)NC(=O)[C@H](C)NC1=O` [Arb_cyclic_G2], with 30.8 min.
With `CCCC[C@H](NC(=O)[C@H](CCCNC(=N)N)NC(C)=O)C(=O)N[C@H]1CSSC[C@@H](C(=O)N[C@@H](CCCNC(=N)N)C(=O)N[C@@H](CCC(N)=O)C(=O)N[C@H](C(=O)N[C@@H](CC(C)(C)C)C(=O)O)C(C)(C)C)NC(=O)[C@H](C)NC(=O)[C@@H]2CCCN2C(=O)[C@H](CO)NC(=O)[C@H](CCCNC(=N)N)NC(=O)[C@H]([C@@H](C)CC)NC(=O)[C@@H]2CCCN2C(=O)CNC1=O` [Arb_cyclic_G10], the half-life in data set [1] (setting [6]) stood at 11.2 min.
`CCCC[C@@H]1NC(=O)[C@H](CCCNC(=N)N)NC(=O)[C@H](CCCNC(=N)N)NC(=O)[C@H]([C@@H](C)O)NC(=O)[C@H]([C@@H](C)O)NC(=O)[C@@H](NC(=O)[C@H](CO)NC(=O)[C@H](CCCNC(=N)N)NC(C)=O)CSSC[C@@H](C(=O)N[C@@H](CCCNC(=N)N)C(=O)N[C@@H](CCC(N)=O)C(=O)N[C@H](C(=O)N[C@@H](CC(C)(C)C)C(=O)O)C(C)(C)C)NC(=O)[C@H]([C@@H](C)O)NC(=O)[C@H](C)NC1=O` [Arb_cyclic_G14, RSCTTRR(Nle)ATCRQ(B13)(F02)] (HELM PEPTIDE1{[ac].R.S.C.T.T.R.R.[Nle].A.T.C.R.Q.[CC(C)(C)[C@H](N[*:1])C(=O)[*:2]].[CC(C)(C)C[C@H](N[*:1])C(=O)O]}$PEPTIDE1,PEPTIDE1,4:R3-12:R3$$$V2.0): the half-life in data set [1] (setting [6]) came to 50.3 min.
Regarding `CCCC[C@@H]1NC(=O)[C@H](CCCNC(=N)N)NC(=O)[C@H](CCCNC(=N)N)NC(=O)[C@H](CC(N)=O)NC(=O)[C@H](CCC(=O)O)NC(=O)[C@@H](NC(=O)[C@H](Cc2c[nH]c3ccccc23)NC(=O)[C@H](CCCNC(=N)N)NC(C)=O)CSSC[C@@H](C(=O)N[C@@H](CCCNC(=N)N)C(=O)N[C@@H](CCC(N)=O)C(=O)N[C@H](C(=O)N[C@@H](CC(C)(C)C)C(=O)O)C(C)(C)C)NC(=O)[C@H]([C@@H](C)O)NC(=O)[C@H](Cc2ccccc2)NC1=O` [Arb_cyclic_G23, RWCENRR(Nle)FTCRQ(B13)(F02)], the half-life in data set [1] (setting [5]) stood at 39.1 min.
For `CC[C@H](C)[C@@H]([C@@H](CC(=O)N1CCC[C@H]1[C@H](OC)[C@@H](C)C(=O)N[C@H](C)[C@@H](O)c1ccccc1)OC)N(C)C(=O)[C@@H](NC(=O)[C@@H](NC)C(C)C)C(C)C` [Free MMAE, Monomethyl auristatin E, reference compound] (H-[NMeV]V[Dil][Dolaproine]-X1; N-terminus and C-terminus assumed), the “body weight variation (Example 6)” value in data set [2] (PDC at each dose, free MMAE at equivalency to 3 mg/kg PDC) is “body weight fluctuations corresponding to treatment times”. Further, the “body weight loss (Example 8)” value in data set [2] (PDCs 3 mg/kg, free MMAE at molar equivalency (0.6 mg/kg)) is “body weight fluctuations corresponding to treatment times”.
